Structures can show the parent of a compound that is named as a salt.
Assays:
PDE4 = PDE4 (Homo sapiens, UniProt Q08499); assay: In-vitro assay for PDE4 enzymes, real-time enzyme-coupled spectrophotometric assay (Table 9); assay type: biochemical; settings: human PDE4D; activity class, Table 9; read-out: hPDE4D
PDE4B = PDE4B (Homo sapiens, UniProt Q07343); assay: In-vitro assay for PDE4 enzymes, real-time enzyme-coupled spectrophotometric assay, PDE4B Activity (Table 10); assay type: biochemical; settings: human PDE4B (hPDE4B), enzyme-coupled spectrophotometric assay; read-out: PDE4B Activity, hPDE4B
PDE4B, sequence (Q07343 whole entry): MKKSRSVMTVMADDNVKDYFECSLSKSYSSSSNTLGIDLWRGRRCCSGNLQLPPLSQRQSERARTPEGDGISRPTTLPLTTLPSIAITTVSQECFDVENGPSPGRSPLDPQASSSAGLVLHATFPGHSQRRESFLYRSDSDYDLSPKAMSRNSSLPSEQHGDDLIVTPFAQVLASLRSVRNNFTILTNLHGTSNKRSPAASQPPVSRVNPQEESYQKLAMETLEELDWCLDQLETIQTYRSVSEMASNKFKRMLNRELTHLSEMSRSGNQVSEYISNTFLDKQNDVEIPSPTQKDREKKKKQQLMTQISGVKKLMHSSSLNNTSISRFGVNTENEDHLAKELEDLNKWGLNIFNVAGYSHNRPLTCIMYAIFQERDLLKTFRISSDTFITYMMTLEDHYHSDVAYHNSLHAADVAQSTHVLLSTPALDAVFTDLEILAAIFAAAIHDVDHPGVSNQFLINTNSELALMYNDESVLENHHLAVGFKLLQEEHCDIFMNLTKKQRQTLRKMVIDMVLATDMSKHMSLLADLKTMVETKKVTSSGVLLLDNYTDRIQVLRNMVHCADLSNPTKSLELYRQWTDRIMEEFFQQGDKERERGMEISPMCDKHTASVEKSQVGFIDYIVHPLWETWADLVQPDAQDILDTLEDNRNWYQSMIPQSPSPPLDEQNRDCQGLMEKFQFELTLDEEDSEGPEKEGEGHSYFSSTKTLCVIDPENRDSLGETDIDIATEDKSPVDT

PDE4, sequence (Q08499 whole entry): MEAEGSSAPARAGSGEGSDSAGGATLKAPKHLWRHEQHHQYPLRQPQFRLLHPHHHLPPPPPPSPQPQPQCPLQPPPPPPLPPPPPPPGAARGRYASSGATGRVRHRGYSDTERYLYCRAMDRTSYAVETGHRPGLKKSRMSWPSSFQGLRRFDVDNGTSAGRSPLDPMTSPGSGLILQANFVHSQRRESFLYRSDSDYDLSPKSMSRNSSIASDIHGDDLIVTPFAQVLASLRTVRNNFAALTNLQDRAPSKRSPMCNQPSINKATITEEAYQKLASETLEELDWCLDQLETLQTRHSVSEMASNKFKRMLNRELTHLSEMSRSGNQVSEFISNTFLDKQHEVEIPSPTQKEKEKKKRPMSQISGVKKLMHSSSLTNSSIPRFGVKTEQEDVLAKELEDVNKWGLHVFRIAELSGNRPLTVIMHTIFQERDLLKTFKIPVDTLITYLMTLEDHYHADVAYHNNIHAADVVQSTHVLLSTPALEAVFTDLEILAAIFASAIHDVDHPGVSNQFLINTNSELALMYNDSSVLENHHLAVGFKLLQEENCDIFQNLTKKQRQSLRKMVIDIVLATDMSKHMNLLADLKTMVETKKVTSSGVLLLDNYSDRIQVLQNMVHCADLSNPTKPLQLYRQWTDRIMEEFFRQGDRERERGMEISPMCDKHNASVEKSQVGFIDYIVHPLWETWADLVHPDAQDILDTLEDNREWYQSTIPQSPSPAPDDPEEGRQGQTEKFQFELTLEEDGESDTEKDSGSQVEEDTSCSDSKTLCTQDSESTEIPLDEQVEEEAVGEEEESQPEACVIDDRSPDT

Row | SMILES | IC50 (PDE4) [µM] | IC50 (PDE4B) [µM]
1 | COc1ccc(Cc2c(C)noc2C)c(O)c1-c1cccc([N+](=O)[O-])c1 [P-174] | < 5 | < 5
2 | COc1ccc(Cc2ccc(S(N)(=O)=O)cc2)cc1-c1cccc(Cl)c1 [P-266, 4-(3′-Chloro-6-methoxy-biphenyl-3-ylmethyl)-benzenesulfonamide] | < 5 | < 5
3 | COc1ccc(COc2ccnc(Cl)c2)cc1-c1cccc(Cl)c1 [P-603] | < 5 | < 5
4 | COc1ccc(Cc2ccc(CNC(=O)N(C)C)nc2)c(F)c1-c1cccc(Cl)c1 [P-371, 3-[5-(3′-Chloro-2-fluoro-6-methoxy-biphenyl-3-ylmethyl)-pyridin-2-ylmethyl]-1,1-dimethyl-urea hydrochloride] | < 5 | < 5
5 | COc1ccc(Cn2cc(-c3cnccn3)cn2)c(F)c1-c1cccc(Cl)c1 [P-545, 2-[1-(3′-Chloro-2-fluoro-6-methoxy-biphenyl-3-ylmethyl)-1H-pyrazol-4-yl]-pyrazine] | < 5 | < 5
6 | COc1ccc(Cc2cnc(NS(C)(=O)=O)nc2)c(F)c1-c1cccc(C(C)=O)c1 [P-284, N-[5-(3′-Acetyl-2-fluoro-6-methoxy-biphenyl-3-ylmethyl)-pyrimidin-2-yl]-methanesulfonamide] | < 5 | < 5
7 | CCOC(=O)Nc1ccc(Cc2ccc(OC)c(-c3cccc(Cl)c3)c2F)cn1 [P-357] | < 5 | < 5
8 | COc1ccc(Cc2cnc(N3CC(O)C3)nc2)c(F)c1-c1cccc(Cl)c1 [P-393, 1-[5-(3′-Chloro-2-fluoro-6-methoxy-biphenyl-3-ylmethyl)-pyrimidin-2-yl]-azetidin-3-ol] | < 5 | < 5
9 | COc1ccc(Cc2ccc(F)cc2)cc1-c1cccc(C(C)=O)c1 [P-140, 1-[5′-(4-Fluoro-benzyl)-2′-methoxy-biphenyl-3-yl]-ethanone] | < 5 | < 5
10 | COc1ccc(Oc2ccc(=O)[nH]n2)cc1-c1cccc([N+](=O)[O-])c1 [P-015, 6-(6-Methoxy-3′-nitro-biphenyl-3-yloxy)-2H-pyridazin-3-one] | < 5 | 21 to 40
11 | CNC(=O)NCc1ccc(Cc2ccc(OC)c(-c3cccc(Cl)c3)c2F)cn1 [P-460, 1-[5-(3′-Chloro-2-fluoro-6-methoxy-biphenyl-3-ylmethyl)-pyridin-2-ylmethyl]-3-methyl-urea hydrochloride] | < 5 | < 5
12 | COc1ccc(Cc2c(C)n[nH]c2C)cc1-c1cccc([N+](=O)[O-])c1 [P-089, 4-(6-Methoxy-3′-nitro-biphenyl-3-ylmethyl)-3,5-dimethyl-1H-pyrazole] | < 5 | < 5
13 | COc1ccc(Cn2cncn2)cc1-c1cccc(OC(F)(F)F)c1 [P-084, 1-(6-Methoxy-3′-trifluoromethoxy-biphenyl-3-ylmethyl)-1H-[1,2,4]triazole] | < 5 | 5 to 20
14 | COc1ccc(COC2=CC(=O)CC2)cc1-c1cccc([N+](=O)[O-])c1 [P-092, 3-(6-Methoxy-3′-nitro-biphenyl-3-ylmethoxy)-cyclopent-2-enone] | < 5 | < 5
15 | COc1ccc(Cc2ccc(C#N)c(O)c2)c(F)c1-c1cccc(Cl)c1 [P-295] | < 5 | 21 to 40
16 | [2H]C([2H])([2H])Oc1ccc(Cc2ccc(NC(N)=O)cc2)cc1-c1cccc(Cl)c1 [P-516] | < 5 | < 5
17 | COc1ccc(C(=O)c2ccc(N)cc2)cc1-c1cccc(F)c1 [P-579] | < 5 | < 5
18 | COc1ccc(Cc2ccncc2)nc1-c1cccc([N+](=O)[O-])c1 [P-019, 3-methoxy-2-(3-nitro-phenyl)-6-pyridin-4-ylmethyl-pyridine] |  | < 5
19 | COc1ccc(CN2C(=O)CCC2=O)cc1-c1ccc2c(c1)OCO2 [P-053, 1-(3-Benzo[1,3]dioxol-5-yl-4-methoxy-benzyl)-pyrrolidine-2,5-dione] | 5 to 20 | 21 to 40
20 | COc1ccc(Sc2ccc(N)cc2)cc1-c1cccc(Cl)c1 [P-447, 4-(3′-Chloro-6-methoxy-biphenyl-3-ylsulfanyl)-phenylaammonium chloride] | < 5 | < 5
21 | COc1ccc(-n2cnc3ccc(N)cc32)cc1-c1cccc(Cl)c1 [P-524, 3-(3′-Chloro-6-methoxy-biphenyl-3-yl)-3H-benzoimidazol-5-ylamine] | < 5 | < 5
22 | COc1ccc(Cc2ccc(N3CCCC3)nc2)c(F)c1-c1cccc(Cl)c1 [P-582, 5-(3′-Chloro-2-fluoro-6-methoxy-biphenyl-3-ylmethyl)-2-pyrrolidin-1-yl-pyridine] | < 5 | < 5
23 | COc1ccc(CN2C(=O)c3cccnc3C2=O)cc1-c1cccc([N+](=O)[O-])c1 [P-055, 6-(6-Methoxy-3′-nitro-biphenyl-3-ylmethyl)-pyrrolo[3,4-b]pyridine-5,7-dione] | < 5 | 5 to 20
24 | O=[N+]([O-])c1cccc(-c2c(OC(F)F)ccc(Cc3ccc(F)cc3)c2F)c1 [P-116] | < 5 | < 5

Row | SMILES | IC50 (PDE4) [µM] | IC50 (PDE4B) [µM]
25 | COc1ccc(COc2ccc(Cl)nc2)c(F)c1-c1cccc(Cl)c1 [P-585] | < 5 | < 5
26 | COc1ccc(Cc2ccc(C(C)N)nc2)c(F)c1-c1cccc(Cl)c1 (stereo not shown) [P-606, 1-[5-(3′-Chloro-2-fluoro-6-methoxy-biphenyl-3-ylmethyl)-pyridin-2-yl]-ethylamine] | < 5 | < 5
27 | O=[N+]([O-])c1cccc(-c2cc(Cc3ccc(F)cc3)ccc2OC(F)F)c1 [P-067, 2-Difluoromethoxy-5-(4-fluoro-benzyl)-3′-nitro-biphenyl] | < 5 | < 5
28 | COc1ccc(Cn2cc(C#N)ccc2=O)cc1-c1cccc([N+](=O)[O-])c1 [P-195, 1-(6-Methoxy-3′-nitro-biphenyl-3-ylmethyl)-6-oxo-1,6-dihydro-pyridine-3-carbonitrile] | 5 to 20 | 21 to 40
29 | COc1ccc(Cc2ccc(CO)nc2)c(F)c1-c1cccc(Cl)c1 [P-599, [5-(3′-Chloro-2-fluoro-6-methoxy-biphenyl-3-ylmethyl)-pyridin-2-yl]-methanol] | < 5 | < 5
30 | CCNC(=O)Nc1ccc(Cc2ccc(OC)c(-c3cccc(-c4nnn[nH]4)c3)c2F)cn1 [P-513, 1-Ethyl-3-{5-[2-fluoro-6-methoxy-3′-(1H-tetrazol-5-yl)-biphenyl-3-ylmethyl]-pyridin-2-yl}-urea] | 5 to 20 | 21 to 40
31 | COc1ccc(Cc2ccc(N(C)C(N)=O)cc2)c(F)c1-c1cccc(C(C)=O)c1 [P-338, 1-[4-(3′-Acetyl-2-fluoro-6-methoxy-biphenyl-3-ylmethyl)-phenyl]-1-methyl-urea] | < 5 | < 5
32 | COc1ccc(Cc2ccc(NC(=O)CNC(=O)OC(C)(C)C)cc2)cc1-c1cccc([N+](=O)[O-])c1 [P-143] | < 5 | < 5
33 | COc1ccc(Cc2ccc(NC(N)=O)cc2)cc1-c1cccc(C#N)c1 [P-394, [4-(3′-Cyano-6-methoxy-biphenyl-3-ylmethyl)-phenyl]-urea] | < 5 | < 5
34 | NC(=O)Nc1ccc(Cc2ccc(OC3CSC3)c(-c3cccc(Cl)c3)c2)cc1 [P-553, {4-[3′-Chloro-6-(thietan-3-yloxy)-biphenyl-3-ylmethyl]-phenyl}-urea] | < 5 | < 5
35 | COc1ccc(Cc2csc(N)n2)c(F)c1-c1cccc(Cl)c1 [P-341, 4-(3′-Chloro-2-fluoro-6-methoxy-biphenyl-3-ylmethyl)-thiazol-2-ylamine] | < 5 | < 5
36 | CCOC(=O)NCc1ccc(Cc2ccc(OC)c(-c3cccc(Cl)c3)c2F)cn1 [P-367, [5-(3′-Chloro-2-fluoro-6-methoxy-biphenyl-3-ylmethyl)-pyridin-2-ylmethyl]-carbamic acid ethyl ester] | < 5 | < 5
37 | COc1ccc(Cc2ccc(=O)[nH]n2)cc1-c1ccc2nonc2c1 [P-012, 6-(3-Benzo[1,2,5]oxadiazol-5-yl-4-methoxy-benzyl)-2H-pyridazin-3-one] | 5 to 20 | 5 to 20
38 | CCOc1ccc(Cc2ccc(NC(N)=O)nc2)c(F)c1-c1cccc(Cl)c1 [P-279] | < 5 | < 5
39 | COc1ccc(Cc2ccccc2O)cc1-c1cccc([N+](=O)[O-])c1 [P-105, 2-(6-Methoxy-3′-nitro-biphenyl-3-ylmethyl)-phenol] | < 5 | < 5
40 | COc1ccc(Cc2ccc(CNC(=O)CN(C)C)cc2)c(F)c1-c1cccc([N+](=O)[O-])c1 [P-175] | < 5 | < 5
41 | COc1ccc(Cc2nnc(N)s2)c(F)c1-c1cccc(Cl)c1 [P-333, 5-(3′-Chloro-2-fluoro-6-methoxy-biphenyl-3-ylmethyl)-[1,3,4]thiadiazol-2-ylamine] | < 5 | < 5
42 | COc1ccc(Cc2ccc(N3CCC[C@H]3C(N)=O)nc2)c(F)c1-c1cccc(Cl)c1 [P-612, (S)-1-[5-(3′-chloro-2-fluoro-6-methoxy-biphenyl-3-ylmethyl)-pyridin-2-yl]-pyrrolidine-2-carboxylic acid amide] | < 5 | < 5
43 | COc1ccc(CO)c(O)c1-c1cccc([N+](=O)[O-])c1 [Cmpd P-149] |  | 5 to 20
44 | COc1ccc(CN2CCCC2=O)nc1-c1cccc([N+](=O)[O-])c1 [P-031, 1-[5-methoxy-6-(3-nitro-phenyl)-pyridin-2-ylmethyl]-pyrrolidin-2-one] |  | 21 to 40
45 | COc1ccc(CN2C[C@@H](OC(N)=O)CC2=O)cc1-c1cccc([N+](=O)[O-])c1 [P-253, Carbamic acid (S)-1-(6-methoxy-3′-nitro-biphenyl-3-ylmethyl)-5-oxo-pyrrolidin-3-yl ester] |  | 21 to 40
46 | COc1ccc(Cc2cc(N)cc(O)c2)c(F)c1-c1cccc(Cl)c1 [P-324, 3-Amino-5-(3′-chloro-2-fluoro-6-methoxy-biphenyl-3-ylmethyl)-phenol] |  | 21 to 40
47 | CNC(=O)Cc1ccc(OC)c(-c2cccc([N+](=O)[O-])c2)c1 [Cmpd P-027] |  | 5 to 20

— US8791267B2, “Biaryl PDE4 inhibitors for treating inflammatory, cardiovascular and CNS disorders” (Decode Genetics EHF, priority 2007, dated 2014)
